This assay has as its system TFEB. Kind of assay: TFEB nuclear translocation in TFEB-GFP HeLa cells. The conditions noted are these: 4 hrs. It is filed as cell-based. The method, then:
FIG. 3A is the graph showing the percentage of nuclear translocated TFEB for which TFEB-GFP HeLa cells were treated with MSL compound for 4 hrs and then nuclei of the cells were stained with DAPI. FIG. 3B is the results of the experiments in which HeLa cells were incubated in the presence of MSL compound or vehicle control for 24 hrs and then the acidic vesicular organelles formed were stained with acridine orange. FIG. 3C is the results of the experiments in which TFEB-GFP HeLa cells were treated with MSL compound or vehicle control for 4 hrs and then the cells were immunoblotted with the antibodies indicated. FIG. 3D and FIG. 3E is the result of measuring the calcineurin activity in the lysates of Hepa1c1c7 cells treated with the compounds indicated. Error bars, S.D. **, P<0.01;***, P<0.001.
FIG. 10 is the result of the experiments using compound of formula 2 (hereinafter referred to as MSL-7) of the present disclosure as an autophagic enhancer. FIG. 10A is the result of immuneblot using the antibodies indicated using Hela cells treated with MSL or MSL-7. FIG. 10B is the result of measuring the viability of Hela cells treated with vehicle control or various concentration of MSL-7 (50-100 μM) for 48 hrs. FIG. 10C is the result of DAPI stained nuclei of TFEB-GFP HeLa cells which were treated with vehicle control or MSL-7 for 4 hrs. The graph indicates the percentage of TFEB translocated into the nuclei. Error bars, S.D. *, P<0.05; **, P<0.01; ***, P<0.001.
Screening of autophagy enhancer. […] Luciferase assay. […] Firefly luciferase was determined after mixing 5 μl of lysate with 25 μl of Luciferase Assay Reagent II. Renilla luciferase was then determined after further addition of 20 ul of Stop&Glo Reagent. […] Cytotoxicity was determined by the measurement of LDH release in cell culture media using the LDH kit (Roche), according to the protocol from the manufacturer. […] Imaging and image quantification. […] Formation of acidic vesicular organelles was quantitated by staining the cells with acridine orange (Invitrogen, 5 ug/ml, 10 min). […]

Entries after “also recorded” stand apart in the source; their conditions may differ.

Consider `COc1oc(-c2ccccc2Cl)nc1S(=O)(=O)c1ccccc1` [MSL-7, 2-(2-chlorophenyl)-5-methoxy-4-(phenylsulfonyl) oxazole], for which the TFEB nuclear translocation entry is “induced nuclear translocation of TFEB; also recorded: in a dose-dependent manner”.
Take `CSc1oc(-c2ccccc2)nc1S(=O)(=O)c1ccc(F)cc1` [MSL]: the TFEB nuclear translocation result is “translocated to the nuclei in the majority of MSL-treated HeLa cells”. The “percentage of nuclei showing TFEB positivity” value (compared to untreated cells) is on record as “greatly increased”.

These data come from US10881642B2, “Autophagy enhancer and use thereof” (Industry-Academic Cooperation Foundation, Yonsei University, priority 2016, dated 2021).
